Test results taken from patent US10925858B2, “S-nitrosoglutathione (GSNO) and GSNO reductase inhibitors for use in therapy” (MUSC FOUNDATION FOR RESEARCH DEVELOPMENT, priority 2017, dated 2021).

Assays:
[1] = tested on: IFN-γ, IL-4, IL-17, IL-10; assay: ELISA of CD4+ T cell subset specific cytokines from spleen derived cells of EAE mice after MOG restimulation; type: in vivo, C57BL/6 mice; details: N6022, MOG restimulation
Experimental: Female C57BL/6 mice of 8-12 weeks of age, purchased from Jackson Laboratory, were provided with food and water ad libitum and were kept in pathogen free animal care facility of Medical University of South Carolina (MUSC) throughout the study. All procedures were conducted in accordance with accepted standards of humane care as approved by the Institutional Animal Care and Use Committee (Approved number: AR #1644). EAE was induced as described previously (Nath et al., 2009). Briefly, mice were immunized subcutaneously in the flank regions with MOG35-55 peptide (MOG; 200 μg; Peptide International) emulsified (1:1) in 100 ul complete Freund's adjuvant (CFA) on day 0 and day 7. Additionally, 300 ng of Pertussis toxin (Sigma-Aldrich, St. Louis, Mo.) was given on day 0 and day 2 by i.p. injection. Pertussis toxin used as per the standardized protocol reported by us and other investigators for the induction of EAE (Nath et al., 2009). Similarly, healthy control group received subcutaneous injection of PBS and CFA emulsion on day 0 and day 7. Clinical signs of EAE were scored by examiners blinded to experimental treatments using the following scale: 0=no clinical signs of disease; 1=piloerection and sluggish; 2=limp tail (ataxia); 2.5=ataxia with partial hind limb paralysis; 3=full paralysis of hind limb; 3.5=full paralysis of hind limb with paralysis of one fore limb; 4=full paralysis of two limbs; 4.5=moribund stage; 5=death. […] The drug treatments were continued till the termination of the study (day 41 post immunization). EAE animals without drug treatment received PBS. Likewise, healthy controls received vehicle.
Fluorescence flow cytometry analysis for each subset of CD4+ T cells (TH1, TH2, TH17, CD4+CD25+ FOXP3+ Treg, and CD4+CD25+ FOXP3− Treg) were performed based on our previous report with modification (Nath et al., 2004). Briefly, control mice, EAE mice. EAE mice treated with GSNO. […] Following the preparation of single cell suspension, red blood cells were lysed with Pharma lyse buffer (BD Pharmingen™) and the remaining spleen cells were washed with RPMI 1640. The isolated CD4+ T cells were then resuspended with complete RPMI-media in 12-well plates (5×10^6 cells' 2 ml per well) containing MOG peptide (25 μg/ml) for 48 hrs. […] The cell pellets were washed with cell staining solution (ebioscience, Waltham, Mass. USA) and stained with fluorescence labeled antibody specific to IFN-γ for TH1. […] The cells were counted and analyzed using Beackman Coulter instrument (Beckman Coulter, Inc., Brea, Calif., USA).
ELISA assay was performed for analysis of CD4+ T cell subset specific cytokines released from cultured cells or spinal cord tissues. […] The equal amounts of proteins were analyzed for ELISA for IFN-γ. […]

GSNOR = GSNOR (Homo sapiens, UniProt P11766); details: description of the compound; cited from earlier work
GSNOR, sequence (P11766 whole entry): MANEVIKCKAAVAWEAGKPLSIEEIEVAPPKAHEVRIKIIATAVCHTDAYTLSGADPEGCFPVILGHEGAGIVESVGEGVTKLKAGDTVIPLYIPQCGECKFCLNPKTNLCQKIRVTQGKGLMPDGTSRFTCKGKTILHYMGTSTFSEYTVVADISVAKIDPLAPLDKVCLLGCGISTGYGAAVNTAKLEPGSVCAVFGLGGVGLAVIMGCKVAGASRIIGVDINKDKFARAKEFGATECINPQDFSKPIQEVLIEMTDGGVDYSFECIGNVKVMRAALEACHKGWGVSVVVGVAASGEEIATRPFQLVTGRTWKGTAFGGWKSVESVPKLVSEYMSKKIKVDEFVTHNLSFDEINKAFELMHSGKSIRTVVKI

CD4+ T cells = assay: Ex vivo culture of PLP139-151 immunized T cells from EAE mice, cytokine ELISA; type: in vivo, SJL mice
hBMVECs = assay: Assay for F-actin stress fiber development in thrombin treated hBMVECs; type: cell-based, human; details: thrombin 0.1 unit/ml 30 min; GSNO 100 μM or SIN-1 100 μM pretreated 2 hr
Experimental: Cell culture: Primary human brain microvascular endothelial cells (hBMVECs) were purchased from Angio-Proteomie (Cat #: cAP-0002, Atlanta, Ga.). The cells were cultured in cell culture flasks or plates precoated with Quick Coating Solution (Angio-Proteomie; Cat #: cAP-01) and maintained in Endothelial Growth Medium (Angio-Proteomie; Cat #: cAP-02) at 37° C. under 5% CO2/95% air. When the cells were almost confluent, the medium was replaced with endothelial basal medium (Angio-Proteomie; Cat #: cAP-03) containing 0.5% fetal bovine serum (FBS; Life Technologies, Grand Island, N.Y.) about 8-12 hours before the experiment. No institutional approval was required for this study. The study was not pre-registered.
Assay for F-actin stress fiber development and endothelial cell contraction: hBMVECs were cultured on fibronectin-coated chamber slides (BD Bioscience). Following drug treatments, the cells were fixed with 4% (wt/vol) paraformaldehyde, permeabilized by the addition of 0.25% Triton X-100, and blocked by 2% bovine serum albumin (BSA) in phosphate buffered saline (PBS). […] The density of fluorescence was analyzed by ImageJ (NIH, Bethesda, Md.).

[2] = T cells from GSNO (1.0 mg/kg daily from immunization) treated vs untreated EAE mice, TH0 condition
[3] = T cells from GSNO treated vs untreated EAE mice

## Cc1cc(C(N)=O)ccc1-n1c(CCC(=O)O)ccc1-c1ccc(-n2ccnc2)cc1 [N6022, reference compound]
[1]
  IL-10 production from spleen derived cells: enhanced
  production of IFN-γ from spleen derived cells: decreased
  production of IL-17 from spleen derived cells: decreased
[1]; to the control levels
  IL-4 production from spleen derived cells: fully restored
GSNOR
  inhibition of GSNOR: very potent, specific, and reversible inhibitor

## N[C@@H](CCC(=O)N[C@@H](CSN=O)C(=O)NCC(=O)O)C(=O)O [GSNO, S-nitrosoglutathione]
CD4+ T cells; [2]
  IFN-γ production of T cells in response to PLP139-151 stimulation: comparable levels
  IL-17 production of T cells in response to PLP139-151 stimulation: significantly lower levels
CD4+ T cells; [3]
  GM-CSF production under TH1 and TH17 skewing conditions: similarly increased levels
  IFN-γ production under TH1 skewing conditions: comparable amounts
  IL-10 production under TH1 and TH17 skewing conditions: significantly higher amounts
  IL-17 production under TH17 skewing conditions: EAE group produced higher levels of IL-17 than T cells isolated from GSNO+ EAE group
hBMVECs
  thrombin-induced development of F-actin stress fiber formation: inhibited
